Reference: patent US7858644B2, “EP4 receptor antagonists” (Asterand UK Limited, priority 2003, dated 2010)

Key:
human EP4 receptor = biological target: T1, human EP4 receptor (Homo sapiens, UniProt P35408); assay: Binding ability to human EP4 receptor ([3H]PGE2 displacement); settings: read-out: pKi EP4 (converted)
T1 construct: expressed in transfected cells
Procedure: (§1) Membranes were prepared from cells stably transfected with human EP receptor cDNA. In brief, cells were cultured to confluency, scraped from culture flasks, and centrifuged (800 g, 8 minutes, 4° C.). Cells were twice washed in ice cold homogenisation buffer containing 10 mMTris-HCl, 1 mM EDTA. 2Na, 250 mM sucrose, 1 mM PMSF, 0.3 mM indomethacin, pH 7.4, homogenised and re-centrifuged as before. The supernatant was stored on ice and pellets re-homogenised and re-spun. Supernatants were pooled and centrifuged at 40000 g, 10 minutes, 4° C. Resultant membrane pellets were stored at −80° C. until use.
(§2) Incubations were performed at suitable temperatures and for suitable times to allow equilibrium to be reached. Non-specific binding was determined in the presence of 10 uM PGE2. Bound and free radiolabel was separated by vacuum manifold filtration using appropriate wash buffers, and bound radiolabel was determined by scintillation counting. Constituents of each of the buffers are included in table 1 below.
(§3) This approach follows that set out in Kenakin, T. P., Pharmacologic analysis of drug receptor interaction. Raven Press, New York, 2nd edition.

human EP2 receptor = biological target: T2, human EP2 receptor (Homo sapiens, UniProt P43116); assay: Binding ability to human EP2 receptor ([3H]PGE2 displacement); settings: read-out: pKi EP2 (converted)
T2 construct: expressed in transfected cells
Procedure: as §1
as §2, with “For assay, membranes expressing human EP4, EP3, EP2 or EP1 receptors were incubated in Millipore (MHVBN45) plates containing assay buffer, radiolabelled [^3H]PGE2 and 0.1 to 10 000 nM concentrations of compounds. Incubations” for “Incubations”
as §3

human EP3 receptor = biological target: T3, human EP3 receptor (Homo sapiens, UniProt P43115); assay: Binding ability to human EP3 receptor ([3H]PGE2 displacement); settings: membranes from cells stably transfected with human EP receptor cDNA; [3H]PGE2 2.5 nM; Cheng-Prusoff from IC50; read-out: pKi EP3 (converted)
T3 construct: expressed in transfected cells
T3 sequence (P43115 1-390): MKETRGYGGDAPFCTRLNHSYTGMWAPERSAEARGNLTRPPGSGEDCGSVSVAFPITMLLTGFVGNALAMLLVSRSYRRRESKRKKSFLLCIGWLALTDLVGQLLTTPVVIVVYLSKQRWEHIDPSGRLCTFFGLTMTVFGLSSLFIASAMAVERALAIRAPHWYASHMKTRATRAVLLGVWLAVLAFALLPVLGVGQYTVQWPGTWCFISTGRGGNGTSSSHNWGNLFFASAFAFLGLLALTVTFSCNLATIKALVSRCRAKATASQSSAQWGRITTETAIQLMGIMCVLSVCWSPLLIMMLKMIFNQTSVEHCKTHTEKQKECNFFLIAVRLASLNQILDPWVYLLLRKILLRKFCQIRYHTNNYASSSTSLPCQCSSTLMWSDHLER
Procedure: as §1
as §2, with “For assay, membranes expressing human EP4, EP3, EP2 or EP1 receptors were incubated in Millipore (MHVBN45) plates containing assay buffer, radiolabelled [^3H]PGE2 and 0.1 to 10 000 nM concentrations of compounds. Incubations” for “Incubations”
as §3

T1 sequence (P35408 whole entry): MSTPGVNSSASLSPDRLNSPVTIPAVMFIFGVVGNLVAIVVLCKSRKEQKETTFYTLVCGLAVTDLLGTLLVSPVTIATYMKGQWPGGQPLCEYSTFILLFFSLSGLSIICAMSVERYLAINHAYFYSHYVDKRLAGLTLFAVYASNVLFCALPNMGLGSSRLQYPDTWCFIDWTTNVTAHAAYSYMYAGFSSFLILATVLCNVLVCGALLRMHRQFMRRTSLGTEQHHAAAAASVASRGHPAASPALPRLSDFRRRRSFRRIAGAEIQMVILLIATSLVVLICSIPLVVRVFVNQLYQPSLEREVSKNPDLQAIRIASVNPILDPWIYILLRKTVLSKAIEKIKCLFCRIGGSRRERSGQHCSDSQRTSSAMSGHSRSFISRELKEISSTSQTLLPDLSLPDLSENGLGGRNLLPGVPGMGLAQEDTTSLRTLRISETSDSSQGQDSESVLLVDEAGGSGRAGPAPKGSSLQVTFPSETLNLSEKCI
T2 sequence (P43116 whole entry): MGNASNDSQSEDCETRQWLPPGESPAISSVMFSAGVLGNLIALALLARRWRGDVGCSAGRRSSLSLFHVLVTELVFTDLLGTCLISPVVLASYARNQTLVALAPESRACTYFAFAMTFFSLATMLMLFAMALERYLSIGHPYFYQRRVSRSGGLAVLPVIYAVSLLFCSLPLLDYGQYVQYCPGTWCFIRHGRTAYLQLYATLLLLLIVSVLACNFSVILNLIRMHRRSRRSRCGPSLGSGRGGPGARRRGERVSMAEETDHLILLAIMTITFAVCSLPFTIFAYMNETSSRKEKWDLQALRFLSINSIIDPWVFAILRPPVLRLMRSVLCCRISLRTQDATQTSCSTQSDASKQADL

O=C(O)c1cc(COc2ccc3oc4ccccc4c3c2)co1 [Compound 78, 4-(Dibenzofuran-2-yloxymethyl)-furan-2-carboxylic acid]
Ki (human EP4 receptor): < 10 µM | Ki (human EP2 receptor): > 3.16 µM | Ki (human EP3 receptor): > 10 µM

N#Cc1ccc(-c2ccc(OCc3coc(C(=O)O)c3)cc2)cc1 [Compound 79, 4-(4′-Cyano-biphenyl-4-yloxymethyl)-furan-2-carboxylic acid]
Ki (human EP4 receptor): < 3.16 µM | Ki (human EP2 receptor): > 10 µM | Ki (human EP3 receptor): > 10 µM

COc1ccc(-c2ccc(OCc3coc(C(=O)O)c3)cc2)cc1 [Compound 80, 4-(4′-Methoxy-biphenyl-4-yloxymethyl)-furan-2-carboxylic acid]
Ki (human EP4 receptor): < 0.316 µM | Ki (human EP2 receptor): > 10 µM | Ki (human EP3 receptor): > 10 µM

O=C(O)c1cc(COc2ccc3c(c2)oc2ccccc23)co1 [Compound 81, 4-(Dibenzofuran-3-yloxymethyl)-furan-2-carboxylic acid]
Ki (human EP4 receptor): < 3.16 µM | Ki (human EP2 receptor): > 3.16 µM | Ki (human EP3 receptor): > 10 µM

COc1ccc(-c2ccc(OCc3cc(C(=O)O)oc3C(C)C)cc2)cc1 [Compound 86, 5-Isopropyl-4-(4′-methoxy-biphenyl-4-yloxymethyl)-furan-2-carboxylic acid]
Ki (human EP4 receptor): < 1 µM | Ki (human EP2 receptor): > 10 µM | Ki (human EP3 receptor): > 10 µM

CC(C)c1oc(C(=O)O)cc1COc1ccc2c(c1)oc1ccccc12 [Compound 87, 4-(Dibenzofuran-3-yloxymethyl)-5-isopropyl-furan-2-carboxylic acid]
Ki (human EP4 receptor): < 3.16 µM | Ki (human EP2 receptor): > 10 µM | Ki (human EP3 receptor): > 10 µM

O=C(O)c1cc(COc2cccc(-c3ccccc3)c2)c(C(F)(F)F)o1 [Compound 91, 4-(Biphenyl-3-yloxymethyl)-5-trifluoromethyl-furan-2-carboxylic acid]
Ki (human EP4 receptor): < 3.16 µM | Ki (human EP2 receptor): > 10 µM | Ki (human EP3 receptor): > 10 µM

O=C(O)c1cc(COc2ccc3oc4ccccc4c3c2)c(C(F)(F)F)o1 [Compound 92, 4-(Dibenzofuran-2-yloxymethyl)-5-trifluoromethyl-furan-2-carboxylic acid]
Ki (human EP4 receptor): < 3.16 µM | Ki (human EP2 receptor): > 10 µM | Ki (human EP3 receptor): > 10 µM

N#Cc1ccc(-c2ccc(OCc3cc(C(=O)O)oc3C(F)(F)F)cc2)cc1 [Compound 93, 4-(4′-Cyano-biphenyl-4-yloxymethyl)-5-trifluoromethyl-furan-2-carboxylic acid]
Ki (human EP4 receptor): < 3.16 µM | Ki (human EP2 receptor): > 10 µM | Ki (human EP3 receptor): > 10 µM

COc1ccc(-c2ccc(OCc3cc(C(=O)O)oc3C(F)(F)F)cc2)cc1 [Compound 94, 4-(4′-Methoxy-biphenyl-4-yloxymethyl)-5-trifluoromethyl-furan-2-carboxylic acid]
Ki (human EP4 receptor): < 0.316 µM | Ki (human EP2 receptor): > 10 µM | Ki (human EP3 receptor): > 10 µM

O=C(O)c1cc(COc2ccc3c(c2)oc2ccccc23)c(C(F)(F)F)o1 [Compound 95, 4-(Dibenzofuran-3-yloxymethyl)-5-trifluoromethyl-furan-2-carboxylic acid]
Ki (human EP4 receptor): < 3.16 µM | Ki (human EP2 receptor): > 3.16 µM | Ki (human EP3 receptor): > 10 µM

CCOc1ccc(-c2ccc(OCc3cc(C(=O)O)oc3C)cc2)cc1 [Compound 98, 4-(4′-Ethoxy-biphenyl-4-yloxymethyl)-5-methyl-furan-2-carboxylic acid]
Ki (human EP4 receptor): < 0.316 µM | Ki (human EP2 receptor): > 10 µM | Ki (human EP3 receptor): > 10 µM

Cc1oc(C(=O)O)cc1COc1ccc(-c2ccccc2Cl)cc1 [Compound 99, 4-(2′-Chloro-biphenyl-4-yloxymethyl)-5-methyl-furan-2-carboxylic acid]
Ki (human EP4 receptor): < 1 µM | Ki (human EP2 receptor): > 3.16 µM | Ki (human EP3 receptor): > 10 µM

Cc1oc(C(=O)O)cc1COc1ccc(-c2c(F)cccc2F)cc1 [Compound 100, 4-(2′,6′-Difluoro-biphenyl-4-yloxymethyl)-5-methyl-furan-2-carboxylic acid]
Ki (human EP4 receptor): < 3.16 µM | Ki (human EP2 receptor): > 10 µM | Ki (human EP3 receptor): > 10 µM

Cc1oc(C(=O)O)cc1COc1ccc(-c2ccccc2C(F)(F)F)cc1 [Compound 102, 5-Methyl-4-(2′-trifluoromethyl-biphenyl-4-yloxymethyl)-furan-2-carboxylic acid]
Ki (human EP4 receptor): < 3.16 µM | Ki (human EP2 receptor): > 3.16 µM | Ki (human EP3 receptor): > 10 µM

Cc1oc(C(=O)O)cc1COc1ccc(-c2cccc(F)c2)cc1 [Compound 104, 4-(3′-Fluoro-biphenyl-4-yloxymethyl)-5-methyl-furan-2-carboxylic acid]
Ki (human EP4 receptor): < 1 µM | Ki (human EP2 receptor): > 3.16 µM | Ki (human EP3 receptor): > 10 µM

CSc1ccccc1-c1ccc(OCc2cc(C(=O)O)oc2C)cc1 [Compound 105, 5-Methyl-4-(2′-methylsulfanyl-biphenyl-4-yloxymethyl)-furan-2-carboxylic acid]
Ki (human EP4 receptor): < 3.16 µM | Ki (human EP2 receptor): > 10 µM | Ki (human EP3 receptor): > 10 µM

COc1ccc(-c2cccc(OCc3cc(C(=O)O)oc3C)c2)cc1OC [Compound 108, 4-(3′,4′-Dimethoxy-biphenyl-3-yloxymethyl)-5-methyl-furan-2-carboxylic acid]
Ki (human EP4 receptor): < 3.16 µM | Ki (human EP2 receptor): > 10 µM | Ki (human EP3 receptor): > 10 µM

Cc1oc(C(=O)O)cc1COc1cccc(-c2cccc(C(F)(F)F)c2)c1 [Compound 109, 5-Methyl-4-(3′-trifluoromethyl-biphenyl-3-yloxymethyl)-furan-2-carboxylic acid]
Ki (human EP4 receptor): < 3.16 µM | Ki (human EP2 receptor): > 10 µM | Ki (human EP3 receptor): > 10 µM

CSc1ccc(-c2ccc(OCc3cc(C(=O)O)oc3C)cc2)cc1 [Compound 111, 5-Methyl-4-(4′-methylsulphanyl-biphenyl-4-yloxymethyl)-furan-2-carboxylic acid]
Ki (human EP4 receptor): < 3.16 µM | Ki (human EP2 receptor): > 10 µM | Ki (human EP3 receptor): > 10 µM

Cc1oc(C(=O)O)cc1COc1ccc(-c2cccc(O)c2)cc1 [Compound 112, 4-(3′-Hydroxy-biphenyl-4-yloxymethyl)-5-methyl-furan-2-carboxylic acid]
Ki (human EP4 receptor): < 3.16 µM | Ki (human EP2 receptor): > 10 µM | Ki (human EP3 receptor): > 10 µM

Cc1oc(C(=O)O)cc1COc1ccc(-c2ccc(N(C)C)cc2)cc1 [Compound 113, 4-(4′-Dimethylamino-biphenyl-4-yloxymethyl)-5-methyl-furan-2-carboxylic acid]
Ki (human EP4 receptor): < 10 µM | Ki (human EP2 receptor): > 10 µM | Ki (human EP3 receptor): > 10 µM

Cc1oc(C(=O)O)cc1COc1ccc(-c2ccccc2OC(F)(F)F)cc1 [Compound 115, 5-Methyl-4-(2′-trifluoromethoxy-biphenyl-4-yloxymethyl)-furan-2-carboxylic acid]
Ki (human EP4 receptor): < 10 µM | Ki (human EP2 receptor): > 10 µM | Ki (human EP3 receptor): > 10 µM

CC(=O)c1cccc(-c2ccc(OCc3cc(C(=O)O)oc3C)cc2)c1 [Compound 117, 4-(3′-Acetyl-biphenyl-4-yloxymethyl)-5-methyl-furan-2-carboxylic acid]
Ki (human EP4 receptor): < 3.16 µM | Ki (human EP2 receptor): > 10 µM | Ki (human EP3 receptor): > 10 µM

Cc1oc(C(=O)O)cc1COc1ccc(-c2ccc(F)cc2)cc1 [Compound 118, 4-(4′-Fluoro-biphenyl-4-yloxymethyl)-5-methyl-furan-2-carboxylic acid]
Ki (human EP4 receptor): < 1 µM | Ki (human EP2 receptor): > 10 µM | Ki (human EP3 receptor): > 10 µM

COc1ccc(-c2ccc(OCc3cc(C(=O)NS(=O)(=O)c4ccccc4)oc3C)cc2)[n+]([O-])c1 [Compound 135, N-{4-[4-(5-Methoxy-1-oxy-pyridin-2-yl)-phenoxymethyl]-5-methyl-furan-2-carbonyl}-benzenesulphonamide]
Ki (human EP4 receptor): < 10 µM | Ki (human EP2 receptor): > 10 µM | Ki (human EP3 receptor): > 10 µM

Cc1oc(C(=O)O)cc1COc1ccc(-c2ncccn2)cc1 [Compound 137, 5-Methyl-4-(4-pyrimidin-2-yl-phenoxymethyl)-furan-2-carboxylic acid]
Ki (human EP4 receptor): < 10 µM | Ki (human EP2 receptor): > 10 µM | Ki (human EP3 receptor): > 10 µM
